Results on 1 compound are retold here after article PMC10326281, “Insights into the mechanisms governing P01 scorpion toxin effect against U87 glioblastoma cells oncogenesis” (Frontiers in Pharmacology, 2023).

Values after ≈ are worked out from the molar mass of the structure shown. Where a SMILES comes first, the peptide text is derived from it. Bridges are numbered along the chain shown (N, C = ends).

Test [1] concerns MDA-MB231 breast cancer cells. The experiment in a line: Cell adhesion assay, MDA-MB231. In kind it is cell-based, human. The following applies: data not shown. The source says:
(§1) The ATCC (American Type Culture Collection, Rockville, MD, United States) cancer cell lines U87 (glioblastoma), MDA-MB231 (breast cancer) and LS174 (colon adenocarcinoma) were routinely cultured in DMEM supplemented with 10% fœtal bovine serum (FBS), 1% l-glutamine and 100 IU/mL penicillin/streptomycin. […] Rat SK2 cDNA cloned into pJA5 plasmid was a gift from Dr. Skolnik (university Langone Medical center, New York). Human SK3 cDNA cloned into Pipru vector was a king gift from Pr. Soriani (Université Côte d’Azur, CNRS, Inserm, Nice, France).
Adhesion assays were performed as previously described by ([Sarray et al., 2007]). Glioblastoma U87 cells in suspension (10^6 cells/mL) were treated with 50 μg/mL of P01 and deposited on wells coated with purified extracellular matrix (ECM): Fg at 50 μg/mL; Fn at 10 μg/mL; Coll-I at 50 μg/mL; laminin (Lam) at 15 μg/mL or poly-L-lysine (PL) at 20 μg/mL for U87. MDA-MB231 and LS174 cells were also used in their adequate ECM: Fg and Coll-I respectively. They were incubated to adhere to the substrate for 2 h or 24 h at 37°C. After washing, attached cells were fixed, stained by 0.1% crystal violet, lysed with 1% SDS and quantified by measuring absorbance at 560 nm. The specific adhesion is obtained by subtracting the absorbance obtained in the absence of adhesion substrate (no specific control). […]

Another test has as its system U87 glioblastoma cells. Put plainly: Cell proliferation test (crystal violet), U87. The format is cell-based, human.
Description: as §1
(§2) The effect of the P01 peptide on cell proliferation was studied. The human cell lines U87, MDA-MB231 or LS174 (5,000 cells per well) were treated with 2; 5 and 10 μg/mL of P01 peptide. The plates were placed at 37°C for 72 h. Cellular proliferation was quantified at 560 nm by a spectrophotometer (Thermo-Multiskan EX, Shanghai, China) after treatment with 1% glutaraldehyde and staining with 0.1% crystal violet.
(§3) Every 24 h, a series of wells was washed with PBS, the cells were fixed with 1% glutaraldehyde, and preserved in PBS to follow the kinetics of proliferation. After 72 h, the cells were stained with crystal violet 0.1% and quantified by measuring the absorbance at 560 nm using a spectrophotometer (Thermo-Multiskan EX, Shanghai, China).

Test [2] relates to MDA-MB231 breast cancer cells. Put plainly: Cell proliferation test (crystal violet), MDA-MB231. The format is cell-based, human. The following applies: 2–10 μg/mL, 72 h, n = 3.
Description: as §1, §2, §3

Another test concerns β3 integrin. The experiment in a line: U87 cell adhesion in presence of anti-integrin antibodies, β3. The format is cell-based, human. The following applies: 50 μg/mL P01, 30 min pre-incubation, 2 h at 37°C, anti-β3 (1/200), n = 3. The method, then:
(§4) To study the implication of integrins in the P01 peptide activity, adhesion assays using anti-integrin blocking antibodies: anti- α1β1 (1/200), anti- αvβ3 (1/200), anti- α5 (1/200) and anti- β3 (1/200) were performed as described above, except that cells were pretreated with the active peptide P01 at 50 μg/mL.

Test [3] relates to SK2 currents of U87 cells. Put plainly: Whole-cell patch clamp, K+ currents of U87 cells. The following applies: P01 125 pM vs Leidab-7 50 nM, ns between treatments. The format is cell-based, human. The text has this: For U87 cells, whole-cell K^+ currents were generated by stepwise 8 mV depolarizing pulses from a constant holding potential of −90 up to +60 mV. The composition of extracellular solution is the same as that described above and the intracellular pipette solution is as follows in mM: K-glutamate 125, KCl 20, MgCl2 1, Mg-ATP 1, HEPES 10, CaCl2 0.7, EGTA 1, and pH was adjusted to 7.2 with KOH. The pCa is of 6.4 (10^−6.4 M of calcium concentration). Leidab-7 (Tocris, France) was used as reference peptide to selectively block SK2 currents in U87 cells.
For orientation: The patch-clamp technique gives a direct electrical read-out from membranes.

The test system of the next test is α5 integrin. Put plainly: U87 cell adhesion in presence of anti-integrin antibodies, α5. The format is cell-based, human. The following applies: 50 μg/mL P01, 30 min pre-incubation, 2 h at 37°C, anti-α5 (1/200), n = 3. The protocol:
as §4

The test system of another test is human SK3 channel. Put plainly: Whole-cell patch clamp, human SK3 in HEK293T cells. The format is cell-based. The following applies: human SK3 in HEK cells, currents recorded at 0 mV, pCa 6.
Description: as §1
HEK293T-hSK3 and HEK293-rSK2 cells were selected using the puromycin and neomycin resistance gene respectively. HEK cells were routinely cultured in DMEM supplemented with 5% FBS and 1% l-glutamine. All cell lines were maintained at 37°C in a humid atmosphere of 5% CO2 in air.
Experiments were performed with cells seeded into 35-mm Petri dishes at 3,000 to 6,000 cells per cm^2. All experiments were performed using the conventional whole-cell recording configuration of the patch-clamp technique ([Girault et al., 2011]). For HEK cells expressing SK2 or SK3 channels, voltages clamp ramp protocols were used with a duration of 2 s, with varying voltages - 100 to +100 mV, with a holding potential of 0 mV. […] Also, at 0 mV, the membrane potential currents will be recorded mainly K^+ currents and not Cl^− currents.

`CC[C@H](C)[C@H](NC(=O)[C@@H]1CCCN1C(=O)[C@H](CCC(=O)O)NC(=O)[C@@H]1CSSC[C@@H]2NC(=O)[C@H](Cc3c[nH]cn3)NC(=O)[C@H](CCC(=O)O)NC(=O)[C@@H]3CCCN3C(=O)[C@@H]3CSSC[C@H](NC(=O)[C@H](CCCCN)NC(=O)[C@H](CC(=O)O)NC(=O)[C@H](CC(N)=O)NC(=O)[C@H](CC(=O)O)NC(=O)[C@H](CSSC[C@H](NC(=O)[C@H](CO)NC(=O)[C@@H](N)C(C)C)C(=O)N[C@@H](CCC(=O)O)C(=O)N[C@@H](CC(=O)O)C(=O)N3)NC(=O)[C@H](CCCCN)NC(=O)[C@H](C)NC(=O)[C@H](CCC(N)=O)NC(=O)[C@H](C)NC(=O)[C@H](CCCCN)NC(=O)[C@H](CCC(N)=O)NC(=O)[C@H]([C@@H](C)O)NC(=O)[C@H](CO)NC2=O)C(=O)N[C@@H](C(C)C)C(=O)N1)C(=O)O` [P01] (H-VSCEDCPEHCSTQKAQAKCDNDKCVCEPI-OH; disulfide 3-19, 6-24, 10-26 (inferred); N-terminus and C-terminus assumed): the effect on adhesion entry in test [1] is “not affected”. Further, in the test with U87 glioblastoma cells (72 h of incubation), the “IC50 (viability/proliferation)” value came to 10 µg/mL (≈ 3.15 µM). For the same compound, the “kinetic effect on proliferation” value in the test on U87 glioblastoma cells (P01 at 10 μg/mL, time course to 72 h, n = 3) is on record as “inhibition appeared after 48 h of treatment”. Besides, the “effect on cell proliferation” value in test [2] was “no effect”. Besides, the “effect on cell adhesion through β3” value in the test on β3 integrin is given as “not able to alter cell adhesion”. The “current density-voltage relationship compared with Leidab-7” value in test [3] is recorded as “similar”. Further, in the test with α5 integrin, the “effect on adhesive function of α5” value is reported as “reduced the adhesive function”. In addition, in the test with human SK3 channel, the “effect on SK3 current” value is “no effect”.
